# Measurements as given in patent US9249102B2 (priority 2012, dated 2016).
# How the values were obtained:
# [1] = system: microfilaria of Dirofilaria immitis; assay: Method F: microfilaria of Dirofilaria immitis, survival at 24 hours; details: survival of microfilaria at 24 hours
# Haemonchus contortus = assay: Method A: Haemonchus contortus L1 larvae, microtitre plate screen; details: 96 h, read-out: motility inhibition
Compound,EC50 [1],inhibition at 5 µg/mL (Haemonchus contortus)
"N#Cc1ccc(NC2CCN(C(=O)CCCN3CCN(c4ccc5ccccc5c4)CC3)CC2)cc1C(F)(F)F [Compound 15, 4-[(1-[4-[4-(naphthalen-2-yl)piperazin-1-yl]butanoyl]piperidin-4-yl)amino]-2-(trifluoromethyl)benzonitrile]",< 5 µg/mL,
"CC(CN1CCN(c2cccc3ccccc23)CC1)C(=O)N1CCC(Nc2ccc([N+](=O)[O-])c(C(F)(F)F)c2)CC1 (stereo not drawn) [Compound 19, 2-methyl-3-(4-naphthalen-1-yl-piperazin-1-yl)-1-[4-(4-nitro-3-trifluoromethyl-phenylamino)-piperidin-1-yl]-propan-1-one]",< 1 µg/mL,
"O=C(CO[C@H]1CC[C@H](Nc2ccc([N+](=O)[O-])c(C(F)(F)F)c2)CC1)N1CCN(c2cccc3ccccc23)CC1 [Compound 20, 1-[4-(naphthalen-1-yl)piperazin-1-yl]-2-[(4-[[4-nitro-3-(trifluoromethyl)phenyl]amino]cyclohexyl)oxy]ethan-1-one]",< 1 µg/mL,
"N#Cc1ccc(NC2CCN(C(=O)CCCN3CCN(c4ccc5ccccc5n4)CC3)CC2)cc1C(F)(F)F [Compound 94, 4-[(1-[4-[4-(quinolin-2-yl)piperazin-1-yl]butanoyl]piperidin-4-yl)amino]-2-(trifluoromethyl)benzonitrile]",< 5 µg/mL,
"N#Cc1ccc(NC2CCN(C(=O)CCCN3CCN(c4ccc5cc(C(F)(F)F)ccc5n4)CC3)CC2)cc1C(F)(F)F [Compound 95, 2-(trifluoromethyl)-4-[[1-(4-[4-[6-(trifluoromethyl)quinolin-2-yl]piperazin-1-yl]butanoyl)piperidin-4-yl]amino]benzonitrile]",< 5 µg/mL,
"Cc1cc(N2CCN(CC(C)C(=O)N3CCC(Nc4ccc([N+](=O)[O-])c(C(F)(F)F)c4)CC3)CC2)nc2ccccc12 (stereo not drawn) [Compound 101, 2-methyl-3-[4-(4-methylquinolin-2-yl)piperazin-1-yl]-1-(4-[[4-nitro-3-(trifluoromethyl)phenyl]amino]piperidin-1-yl)propan-1-one]",< 1 µg/mL,
"Cc1cc(N2CCN(CC(C)C(=O)N3CCC(Nc4ccc([N+](=O)[O-])c(C(F)(F)F)c4)CC3)CC2)nc2ccc(F)cc12 (stereo not drawn) [Compound 102, 3-[4-(6-fluoro-4-methylquinolin-2-yl)piperazin-1-yl]-2-methyl-1-(4-[[4-nitro-3-(trifluoromethyl)phenyl]amino]piperidin-1-yl)propan-1-one]",< 1 µg/mL,
"O=C(COc1ccc2ccc([N+](=O)[O-])c(C(F)(F)F)c2c1)N1CCN(c2ccc(Cl)cn2)CC1 [Compound 114, 1-[4-(5-chloropyridin-2-yl)piperazin-1-yl]-2-[[7-nitro-8-(trifluoromethyl)naphthalen-2-yl]oxy]ethan-1-one]",< 5 µg/mL,
"O=C(CO[C@H]1CC[C@H](Nc2ccc([N+](=O)[O-])c(C(F)(F)F)c2)CC1)N1CCN(c2ccnc3ccccc23)CC1 [Compound 160, 2-[(4-[[4-nitro-3-(trifluoromethyl)phenyl]amino]cyclohexyl)oxy]-1-[4-(quinolin-4-yl)piperazin-1-yl]ethan-1-one]",< 5 µg/mL,
"O=C(CO[C@H]1CC[C@H](Nc2ccc([N+](=O)[O-])c(C(F)(F)F)c2)CC1)N1CCN(c2ccc(Cl)c3ccccc23)CC1 [Compound 161, 1-[4-(4-chloronaphthalen-1-yl)piperazin-1-yl]-2-[(4-[[4-nitro-3-(trifluoromethyl)phenyl]amino]cyclohe-xyl)oxy]ethan-1-one]",< 5 µg/mL,
"O=C(CO[C@H]1CC[C@H](Nc2ccc([N+](=O)[O-])c(C(F)(F)F)c2)CC1)N1CCc2ccccc2C1 [Compound 192, 2-[[4-[[4-nitro-3-(trifluoromethyl)phenyl]amino]cyclohexyl]oxy]-1-(1,2,3,4-tetrahydroisoquinolin-2-yl)ethan-1-one]",< 1 µg/mL,
"O=C(CO[C@H]1CC[C@H](Nc2ccc([N+](=O)[O-])c(C(F)(F)F)c2)CC1)N1CCN(Cc2cc3cc(Cl)cc(Br)c3o2)CC1 [Compound 321, 2-[(4-[[4-nitro-3-(trifluoromethyl)phenyl]amino]cyclohexyl)-oxy]1-[4-(5-chloro-7-bromobenzofuran-2-ylmethyl)piperazin-1-yl]ethan-1-one]",,≥ 90%
"O=C(CO[C@H]1CC[C@H](Nc2ccc([N+](=O)[O-])c(C(F)(F)F)c2)CC1)N1CCN(CCc2cc3cc(C(F)(F)F)ccc3o2)CC1 [Compound 324, 2-[4-[4-nitro-3-(trifluoromethyl)anilino]cyclohexoxy]-1-[4-[2-[5-(trifluoromethyl)benzofuran-2-yl]ethyl]piperazin-1-yl]ethanone]",,≥ 90%
"CC(Cc1cc2cc(C(F)(F)F)ccc2o1)N1CCN(C(=O)CO[C@H]2CC[C@H](Nc3ccc([N+](=O)[O-])c(C(F)(F)F)c3)CC2)CC1 (stereo partly drawn) [Compound 330, 1-[4-[1-methyl-2-[5-(trifluoromethyl)benzofuran-2-yl]ethyl]piperazin-1-yl]-2-[4-[4-nitro-3-(trifluoromethyl)anilino]cyclohexoxy]ethanone]",,≥ 90%
"O=C(CO[C@H]1CC[C@H](Nc2ccc([N+](=O)[O-])c(C(F)(F)F)c2)CC1)N1CCN(C(=O)c2nc3cc(C(F)(F)F)ccc3s2)CC1 [Compound 338, 2-[(4-[[4-nitro-3-(trifluoromethyl)phenyl]amino]cyclohexyl)-oxy]1-[4-[5-(trifluoromethyl)benzothiazole-2-carbonyl]piperazin-1-yl]ethan-1-one]",,≥ 90%
"C[C@@H]1CN(Cc2ccc3cc(F)ccc3c2)[C@@H](C)CN1C(=O)CO[C@H]1CC[C@H](Nc2ccc([N+](=O)[O-])c(C(F)(F)F)c2)CC1 [Compound 357, 1-[(2R,5S)-4-(6-fluoro-naphthalen-2-ylmethyl)-2,5-dimethyl-piperazin-1-yl]-2-[4-(4-nitro-3-trifluoromethyl-phenylamino)-cyclohexyloxy]-ethanone]",,≥ 90%
"N#Cc1ccc(N[C@H]2CC[C@H](OCC(=O)N3CCN(c4nc5cc(C(F)(F)F)ccc5s4)CC3)CC2)cc1C(F)(F)F [Compound 358, 4-(4-{2-oxo-2-[4-(5-trifluoromethyl-benzothiazol-2-yl)-piperazin-1-yl]-ethoxy}-cyclohexylamino)-2-trifluoromethyl-benzonitrile]",,≥ 90%
"O=C(CO[C@H]1CC[C@H](Nc2ccc(S(=O)(=O)C(F)(F)F)cc2)CC1)N1CCN(c2nc3cc(C(F)(F)F)ccc3s2)CC1 [Compound 364, 2-[4-(4-trifluoromethanesulfonyl-phenylamino)-cyclohexyloxy]-1-[4-(5-trifluoromethyl-benzothiazol-2-yl)-piperazin-1-yl]-ethanone]",,≥ 90%
"C[C@@H]1CN(Cc2nc3cc(C(F)(F)F)ccc3s2)[C@@H](C)CN1C(=O)CO[C@H]1CC[C@H](Nc2ccc([N+](=O)[O-])c(C(F)(F)F)c2)CC1 [Compound 365, 1-[(2R,5S)-2,5-dimethyl-4-(5-trifluoromethyl-benzothiazol-2-ylmethyl)-piperazin-1-yl]-2-[4-(4-nitro-3-trifluoromethyl-phenylamino)-cyclohexyloxy]-ethanone]",,≥ 90%
"C[C@@H]1CN(Cc2nc3cc(F)ccc3s2)[C@@H](C)CN1C(=O)CO[C@H]1CC[C@H](Nc2ccc([N+](=O)[O-])c(C(F)(F)F)c2)CC1 [Compound 370, 1-[(2R,5S)-4-(5-fluoro-benzothiazol-2-ylmethyl)-2,5-dimethyl-piperazin-1-yl]-2-[4-(4-nitro-3-trifluoromethyl-phenylamino)-cyclohexyloxy]-ethanone]",,≥ 90%
"C[C@@H]1CN(C(=O)CO[C@H]2CC[C@H](Nc3ccc([N+](=O)[O-])c(C(F)(F)F)c3)CC2)C[C@H](C)N1Cc1ccc2cc(F)ccc2c1 [Compound 372, 1-[(3S,5R)-4-(6-fluoro-naphthalen-2-ylmethyl)-3,5-dimethyl-piperazin-1-yl]-2-[4-(4-nitro-3-trifluoromethyl-phenylamino)-cyclohexyloxy]-ethanone]",,≥ 90%
"C[C@@H]1CN(C(=O)CO[C@H]2CC[C@H](Nc3ccc([N+](=O)[O-])c(C(F)(F)F)c3)CC2)C[C@H](C)N1Cc1ccc2cc(C(F)(F)F)ccc2c1 [Compound 374, 1-[(3S,5R)-3,5-dimethyl-4-(6-trifluoromethyl-naphthalen-2-ylmethyl)-piperazin-1-yl]-2-[4-(4-nitro-3-trifluoromethyl-phenylamino)-cyclohexyloxy]-ethanone]",,≥ 90%
O=C(CO[C@H]1CC[C@H](Nc2ccc([N+](=O)[O-])c(C(F)(F)F)c2)CC1)N1CCN(Cc2cc3cc(F)cc(F)c3o2)CC1 [Compound 375],,≥ 90%
"CC1(CN2CCN(C(=O)CO[C@H]3CC[C@H](Nc4ccc([N+](=O)[O-])c(C(F)(F)F)c4)CC3)CC2)Cc2cc(F)ccc2O1 (stereo partly drawn) [Compound 377, 1-[4-[(5-fluoro-2-methyl-3H-benzofuran-2-yl)methyl]piperazin-1-yl]-2-[4-[4-nitro-3-(trifluoromethyl)anilino]cyclohexoxy]ethanone]",,≥ 90%
"C[C@@H]1CN(C(=O)CO[C@H]2CC[C@H](Nc3ccc([N+](=O)[O-])c(C(F)(F)F)c3)CC2)C[C@H](C)N1c1ccc2cc(F)ccc2n1 [Compound 381, 1-[(3S,5R)-4-(6-fluoro-quinolin-2-yl)-3,5-dimethyl-piperazin-1-yl]-2-[4-(4-nitro-3-trifluoromethyl-phenylamino)-cyclohexyloxy]-ethanone]",,≥ 90%
"O=C(CO[C@H]1CC[C@H](Nc2ccc([N+](=O)[O-])c(C(F)(F)F)c2)CC1)N1CCN(c2nc3cc(C(F)(F)F)ccc3o2)CC1 [Compound 400, 2-[4-(4-nitro-3-trifluoromethyl-phenylamino)-cyclohexyloxy]-1-[4-(5-trifluoromethyl-benzooxazol-2-yl)-piperazin-1-yl]-ethanone]",,≥ 90%
"O=C(CO[C@H]1CC[C@H](Nc2ccc([N+](=O)[O-])c(C(F)(F)F)c2)CC1)N1CCN(c2nc3cc(OC(F)(F)F)ccc3o2)CC1 [Compound 401, 2-[4-(4-nitro-3-trifluoromethyl-phenylamino)-cyclohexyloxy]-1-[4-(5-trifluoromethoxy-benzooxazol-2-yl)-piperazin-1-yl]-ethanone]",,≥ 90%
